Among the data in ChEMBL document CHEMBL3758169, “4-Aminoindazolyl-dihydrofuro[3,4-d]pyrimidines as non-covalent inhibitors of mutant epidermal growth factor receptor tyrosine kinase” (Bioorg Med Chem Lett, 2016) are inhibition and AUC values, retold here.

The target in data set [1] is Serine/threonine-protein kinase MARK2 (Homo sapiens) (UniProt Q7KZI7). The experiment in a line: Inhibition of MARK2 (unknown origin) at 100 nM.
The species named for a further data set is Homo sapiens. The experiment in a line: Inhibition of MKK6 S207E/T211E double mutant (unknown origin) at 100 nM.
Data set [2] addresses Mitogen-activated protein kinase kinase kinase 11 (Homo sapiens) (UniProt Q16584). As to the kind of experiment: Inhibition of MLK3 (unknown origin) at 100 nM.
Data set [3] addresses Myosin light chain kinase (Homo sapiens) (UniProt Q32MK0). The experiment in a line: Inhibition of MYLK3 (unknown origin) at 100 nM.
Data set [4] addresses 3-phosphoinositide-dependent protein kinase 1 (Homo sapiens) (UniProt O15530). The experiment in a line: Inhibition of PDK1 (unknown origin) by direct binding assay at 100 nM.
For data set [5], the target named is Phosphatidylinositol 4-phosphate 3-kinase C2 domain-containing subunit alpha (Homo sapiens) (UniProt O00443). As to the kind of experiment: Inhibition of PI3KC2A (unknown origin) at 100 nM.
Chain of Phosphatidylinositol 4-phosphate 3-kinase C2 domain-containing subunit alpha (Homo sapiens) (O00443 whole entry, the tested form may be a part): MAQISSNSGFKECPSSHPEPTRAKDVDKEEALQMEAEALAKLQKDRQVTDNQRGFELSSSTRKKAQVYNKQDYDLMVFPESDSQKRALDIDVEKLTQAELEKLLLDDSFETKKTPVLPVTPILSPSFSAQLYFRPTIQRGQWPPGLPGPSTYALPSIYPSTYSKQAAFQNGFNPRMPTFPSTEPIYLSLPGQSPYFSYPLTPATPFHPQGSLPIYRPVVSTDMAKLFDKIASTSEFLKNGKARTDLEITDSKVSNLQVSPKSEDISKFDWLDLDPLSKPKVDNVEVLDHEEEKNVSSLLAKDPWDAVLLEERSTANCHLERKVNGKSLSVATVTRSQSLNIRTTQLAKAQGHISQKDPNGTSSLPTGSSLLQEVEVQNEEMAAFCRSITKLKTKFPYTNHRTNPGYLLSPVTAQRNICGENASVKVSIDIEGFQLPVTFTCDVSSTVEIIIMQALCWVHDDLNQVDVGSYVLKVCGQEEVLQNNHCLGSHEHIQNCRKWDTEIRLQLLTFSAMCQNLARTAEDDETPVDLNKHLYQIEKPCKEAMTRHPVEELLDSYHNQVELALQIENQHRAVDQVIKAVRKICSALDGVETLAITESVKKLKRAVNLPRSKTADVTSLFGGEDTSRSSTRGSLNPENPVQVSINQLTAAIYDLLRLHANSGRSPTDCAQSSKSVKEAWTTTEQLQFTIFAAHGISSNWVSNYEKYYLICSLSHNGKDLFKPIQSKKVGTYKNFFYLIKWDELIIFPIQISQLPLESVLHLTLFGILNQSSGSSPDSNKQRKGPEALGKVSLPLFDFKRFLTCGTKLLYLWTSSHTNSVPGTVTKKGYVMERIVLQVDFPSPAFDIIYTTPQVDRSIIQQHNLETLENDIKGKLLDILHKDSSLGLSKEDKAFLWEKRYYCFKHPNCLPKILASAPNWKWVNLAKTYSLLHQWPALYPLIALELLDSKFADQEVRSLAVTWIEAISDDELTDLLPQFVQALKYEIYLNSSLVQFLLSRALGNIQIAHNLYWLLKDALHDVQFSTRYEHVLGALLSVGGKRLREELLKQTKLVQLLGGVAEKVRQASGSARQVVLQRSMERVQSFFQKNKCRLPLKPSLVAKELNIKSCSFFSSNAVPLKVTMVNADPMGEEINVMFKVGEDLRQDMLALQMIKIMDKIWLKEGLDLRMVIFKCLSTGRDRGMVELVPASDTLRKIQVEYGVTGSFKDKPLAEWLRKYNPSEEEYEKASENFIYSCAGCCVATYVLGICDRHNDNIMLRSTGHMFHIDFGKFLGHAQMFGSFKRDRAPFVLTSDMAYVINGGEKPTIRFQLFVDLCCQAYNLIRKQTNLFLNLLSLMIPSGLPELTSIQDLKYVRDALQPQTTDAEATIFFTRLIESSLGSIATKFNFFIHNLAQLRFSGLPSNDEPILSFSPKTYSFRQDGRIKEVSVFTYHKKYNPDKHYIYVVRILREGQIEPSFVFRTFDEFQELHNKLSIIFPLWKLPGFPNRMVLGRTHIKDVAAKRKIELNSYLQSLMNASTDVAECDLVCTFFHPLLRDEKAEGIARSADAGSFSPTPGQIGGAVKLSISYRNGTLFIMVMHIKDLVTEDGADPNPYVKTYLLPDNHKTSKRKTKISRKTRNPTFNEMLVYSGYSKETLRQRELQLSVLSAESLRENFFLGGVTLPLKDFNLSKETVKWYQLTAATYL
The target of data set [6] is Protein kinase C theta type (Homo sapiens) (UniProt Q04759). The experiment in a line: Inhibition of PKCtheta (unknown origin) at 100 nM.
Data set [7] deals with Serine/threonine-protein kinase PLK3 (Homo sapiens) (UniProt Q9H4B4). The experiment in a line: Inhibition of PLK3 (unknown origin) at 100 nM.
Chain of Serine/threonine-protein kinase PLK3 (Homo sapiens) (Q9H4B4 whole entry, looked up): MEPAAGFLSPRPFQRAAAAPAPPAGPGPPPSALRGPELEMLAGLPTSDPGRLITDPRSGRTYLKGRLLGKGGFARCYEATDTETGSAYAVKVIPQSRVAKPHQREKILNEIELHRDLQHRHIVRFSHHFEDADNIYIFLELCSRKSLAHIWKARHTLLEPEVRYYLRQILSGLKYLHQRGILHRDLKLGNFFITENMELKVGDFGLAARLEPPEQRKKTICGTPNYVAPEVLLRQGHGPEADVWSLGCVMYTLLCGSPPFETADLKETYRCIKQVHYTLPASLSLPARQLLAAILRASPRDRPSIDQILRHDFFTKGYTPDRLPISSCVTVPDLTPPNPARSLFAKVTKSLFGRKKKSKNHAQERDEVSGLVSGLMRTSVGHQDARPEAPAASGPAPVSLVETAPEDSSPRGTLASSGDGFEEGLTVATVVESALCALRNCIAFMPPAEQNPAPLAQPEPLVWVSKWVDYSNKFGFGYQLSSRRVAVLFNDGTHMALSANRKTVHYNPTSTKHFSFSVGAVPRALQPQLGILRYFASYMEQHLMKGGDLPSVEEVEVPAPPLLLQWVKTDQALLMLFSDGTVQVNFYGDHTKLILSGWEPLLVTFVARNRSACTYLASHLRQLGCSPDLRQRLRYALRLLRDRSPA
Data set [8] addresses Proto-oncogene tyrosine-protein kinase receptor Ret (Homo sapiens) (UniProt P07949). The experiment in a line: Inhibition of RET (unknown origin) at 100 nM.
Data set [9] concerns the target Serine/threonine-protein kinase 16 (Homo sapiens) (UniProt O75716). The experiment in a line: Inhibition of STK16 (unknown origin) at 100 nM.
For data set [10], the target named is Serine/threonine-protein kinase 25 (Homo sapiens) (UniProt O00506). The experiment in a line: Inhibition of YSK1 (unknown origin) at 100 nM.
Chain of Serine/threonine-protein kinase 25 (Homo sapiens) (O00506 whole entry, looked up): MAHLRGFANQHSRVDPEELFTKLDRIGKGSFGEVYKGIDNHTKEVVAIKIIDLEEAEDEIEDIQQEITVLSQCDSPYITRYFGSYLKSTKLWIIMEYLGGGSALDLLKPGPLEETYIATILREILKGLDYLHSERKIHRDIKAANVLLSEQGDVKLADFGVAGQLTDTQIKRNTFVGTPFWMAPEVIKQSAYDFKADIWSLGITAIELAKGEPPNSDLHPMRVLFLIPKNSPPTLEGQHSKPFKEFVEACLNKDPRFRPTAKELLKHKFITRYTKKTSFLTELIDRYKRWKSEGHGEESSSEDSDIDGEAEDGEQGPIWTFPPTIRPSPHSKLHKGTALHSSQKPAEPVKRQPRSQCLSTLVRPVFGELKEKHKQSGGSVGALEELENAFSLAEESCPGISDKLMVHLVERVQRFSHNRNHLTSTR
The nature of data set [11]: Total AUC in rat at 5 mg/kg, po. The data set is classed as ADME, organism-based. As to conditions: in vivo. On the set-up: dose 5 mg/kg, time AUCmax, route oral.
Data set [12] deals with Megakaryocyte-associated tyrosine-protein kinase (Homo sapiens) (UniProt P42679). As to the kind of experiment: Inhibition of Hyl (unknown origin) at 100 nM.
Data set [13] has as its target RAC-beta serine/threonine-protein kinase (Homo sapiens) (UniProt P31751). As to the kind of experiment: Inhibition of AKT2 (unknown origin) at 100 nM.
Data set [14] addresses Tyrosine-protein kinase FRK (Homo sapiens) (UniProt P42685). The experiment in a line: Inhibition of FRK (unknown origin) at 100 nM.
The target of data set [15] is Mitogen-activated protein kinase 10 (Homo sapiens) (UniProt P53779). The experiment in a line: Inhibition of JNK3 (unknown origin) at 100 nM.
Chain of Mitogen-activated protein kinase 10 (Homo sapiens) (P53779 whole entry): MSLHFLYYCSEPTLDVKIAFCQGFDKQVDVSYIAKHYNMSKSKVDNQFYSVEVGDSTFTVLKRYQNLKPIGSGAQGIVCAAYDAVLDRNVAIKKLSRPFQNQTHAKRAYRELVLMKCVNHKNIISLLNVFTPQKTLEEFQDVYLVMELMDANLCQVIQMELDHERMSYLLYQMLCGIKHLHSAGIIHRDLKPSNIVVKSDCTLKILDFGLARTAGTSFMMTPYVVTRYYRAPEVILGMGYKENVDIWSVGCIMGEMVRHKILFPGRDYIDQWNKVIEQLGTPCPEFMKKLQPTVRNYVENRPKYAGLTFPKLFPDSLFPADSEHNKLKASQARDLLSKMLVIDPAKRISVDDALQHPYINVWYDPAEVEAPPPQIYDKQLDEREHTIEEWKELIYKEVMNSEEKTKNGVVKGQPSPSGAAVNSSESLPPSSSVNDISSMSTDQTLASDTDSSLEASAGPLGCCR

Molecules are shown by their SMILES.

Chain of Tyrosine-protein kinase FRK (Homo sapiens) (P42685 whole entry): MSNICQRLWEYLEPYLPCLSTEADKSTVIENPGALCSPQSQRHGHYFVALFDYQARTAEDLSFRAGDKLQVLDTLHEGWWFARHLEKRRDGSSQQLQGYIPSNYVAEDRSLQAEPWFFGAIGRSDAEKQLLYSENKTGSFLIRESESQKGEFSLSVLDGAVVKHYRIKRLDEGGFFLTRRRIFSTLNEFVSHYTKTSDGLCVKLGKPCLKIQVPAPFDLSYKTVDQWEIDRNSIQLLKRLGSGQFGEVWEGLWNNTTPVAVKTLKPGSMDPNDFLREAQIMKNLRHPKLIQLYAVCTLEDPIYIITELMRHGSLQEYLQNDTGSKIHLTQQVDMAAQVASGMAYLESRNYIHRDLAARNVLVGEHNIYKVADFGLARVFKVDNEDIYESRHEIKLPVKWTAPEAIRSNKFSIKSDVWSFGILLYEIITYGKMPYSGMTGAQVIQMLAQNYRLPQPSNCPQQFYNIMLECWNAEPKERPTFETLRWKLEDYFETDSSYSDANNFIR
Chain of 3-phosphoinositide-dependent protein kinase 1 (Homo sapiens) (O15530 whole entry, the tested form may be a part): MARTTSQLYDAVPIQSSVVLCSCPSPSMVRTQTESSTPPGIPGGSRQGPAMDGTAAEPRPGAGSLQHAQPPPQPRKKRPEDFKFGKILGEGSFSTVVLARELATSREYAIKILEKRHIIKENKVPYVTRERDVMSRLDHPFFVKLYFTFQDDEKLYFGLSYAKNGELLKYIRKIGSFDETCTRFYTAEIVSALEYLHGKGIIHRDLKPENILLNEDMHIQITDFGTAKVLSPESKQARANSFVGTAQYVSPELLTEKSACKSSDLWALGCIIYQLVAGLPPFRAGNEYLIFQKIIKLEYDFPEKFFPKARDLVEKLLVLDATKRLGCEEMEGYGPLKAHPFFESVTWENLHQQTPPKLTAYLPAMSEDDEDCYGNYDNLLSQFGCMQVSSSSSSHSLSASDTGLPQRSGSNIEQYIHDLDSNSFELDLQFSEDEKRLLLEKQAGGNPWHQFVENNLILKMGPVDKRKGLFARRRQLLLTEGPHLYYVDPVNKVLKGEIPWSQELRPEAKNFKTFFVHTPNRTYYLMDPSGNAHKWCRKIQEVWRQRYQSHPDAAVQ
Chain of Serine/threonine-protein kinase MARK2 (Homo sapiens) (Q7KZI7 whole entry): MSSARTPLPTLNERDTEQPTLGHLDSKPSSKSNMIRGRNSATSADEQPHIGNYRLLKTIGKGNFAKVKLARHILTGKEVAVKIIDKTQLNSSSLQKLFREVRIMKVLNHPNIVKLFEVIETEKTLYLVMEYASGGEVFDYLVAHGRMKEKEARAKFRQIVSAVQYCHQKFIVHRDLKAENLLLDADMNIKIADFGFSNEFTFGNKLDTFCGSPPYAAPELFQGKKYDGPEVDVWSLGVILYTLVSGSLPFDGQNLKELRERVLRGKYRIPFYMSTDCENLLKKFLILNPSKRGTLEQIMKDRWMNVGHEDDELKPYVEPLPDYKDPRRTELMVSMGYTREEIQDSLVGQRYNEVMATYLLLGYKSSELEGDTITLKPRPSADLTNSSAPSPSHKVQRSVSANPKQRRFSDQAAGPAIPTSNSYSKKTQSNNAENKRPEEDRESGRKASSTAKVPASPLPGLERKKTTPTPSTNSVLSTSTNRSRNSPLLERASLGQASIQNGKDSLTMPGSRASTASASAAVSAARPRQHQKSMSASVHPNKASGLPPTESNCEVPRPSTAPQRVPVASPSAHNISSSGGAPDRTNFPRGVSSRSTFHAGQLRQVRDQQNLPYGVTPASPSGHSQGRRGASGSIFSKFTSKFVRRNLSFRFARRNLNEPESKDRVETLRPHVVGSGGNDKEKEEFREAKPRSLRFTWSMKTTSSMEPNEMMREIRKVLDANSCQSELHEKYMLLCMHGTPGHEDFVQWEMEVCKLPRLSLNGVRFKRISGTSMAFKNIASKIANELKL

In general, inhibition refers to the drop in the measured response relative to a control, in per cent. A word on the AUC: it is concentration integrated over time. On to `CC1(C)OCc2c(Nc3n[nH]c4ccccc34)nc(-c3cn[nH]c3)nc21`, for which the inhibition in data set [1] is -5.3%; in the data set listed under Homo sapiens it was 10.2%; in data set [2] it was 6.7%; in [3], 20.6%; in data set [4], -1.4%; in [5], 2.9%. In addition, the inhibition in data set [6] is 4.5%; in data set [7] it was -5.4%; in data set [8], 98.2%; in data set [9], 29.5%; in data set [10], 5.1%; in data set [12] it was 0.8%. The inhibition in data set [13] amounted to 8.8%; in [14], 85.6%; in data set [15], 18.6%. In addition, in data set [11], the AUC stood at 0.37 µM·h.
